From ChEMBL document CHEMBL5614375, “PepExplainer: An explainable deep learning model for selection-based macrocyclic peptide bioactivity prediction and optimization” (Eur J Med Chem, 2024)
Bridge positions count the residues as written; N and C are the ends. Peptide text beside a SMILES is read from it.

Target: T1, IL17-RE-IL-17C (Homo sapiens, UniProt Q8NFR9+Q9P0M4)
T1 sequence (Q9P0M4 whole entry): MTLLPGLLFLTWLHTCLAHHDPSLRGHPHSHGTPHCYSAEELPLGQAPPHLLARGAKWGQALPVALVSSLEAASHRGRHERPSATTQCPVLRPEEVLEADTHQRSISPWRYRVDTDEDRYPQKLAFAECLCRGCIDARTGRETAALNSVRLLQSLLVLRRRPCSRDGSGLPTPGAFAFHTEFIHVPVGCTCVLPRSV
T1 sequence (Q8NFR9 whole entry): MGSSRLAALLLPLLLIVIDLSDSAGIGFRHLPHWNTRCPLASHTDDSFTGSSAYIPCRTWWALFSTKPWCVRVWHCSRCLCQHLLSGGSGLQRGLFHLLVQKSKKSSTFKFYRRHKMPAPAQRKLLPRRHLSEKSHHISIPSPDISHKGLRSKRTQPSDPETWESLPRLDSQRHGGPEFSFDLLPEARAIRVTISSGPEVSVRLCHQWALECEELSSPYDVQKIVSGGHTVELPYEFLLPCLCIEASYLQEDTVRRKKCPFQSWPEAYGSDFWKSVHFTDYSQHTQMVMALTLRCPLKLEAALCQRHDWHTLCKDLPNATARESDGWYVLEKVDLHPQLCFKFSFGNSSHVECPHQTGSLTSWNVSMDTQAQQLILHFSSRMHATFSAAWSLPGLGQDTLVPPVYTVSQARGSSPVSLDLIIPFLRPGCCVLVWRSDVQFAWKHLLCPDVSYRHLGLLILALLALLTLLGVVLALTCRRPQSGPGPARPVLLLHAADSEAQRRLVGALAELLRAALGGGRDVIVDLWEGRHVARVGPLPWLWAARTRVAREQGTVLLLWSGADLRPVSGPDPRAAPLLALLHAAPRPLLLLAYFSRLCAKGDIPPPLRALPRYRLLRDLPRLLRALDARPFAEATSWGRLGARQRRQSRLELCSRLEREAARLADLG
Experiment: Inhibition of interleukin-17RE/biotinylated IL-17C protein-protein interaction (unknown origin) incubated for 1 hrs by competitive ELISA
Format: protein-complex assay

| Compound | IC50 [nM] |
| --- | --- |
| CC(C)C[C@@H]1NC(=O)[C@H](C)NC(=O)[C@H](CCCNC(=N)N)NC(=O)[C@H](Cc2ccc(O)cc2)NC(=O)[C@H](Cc2ccc(O)cc2)NC(=O)[C@H](Cc2c[nH]cn2)NC(=O)[C@H](Cc2c[nH]cn2)NC(=O)[C@H](Cc2ccc(O)cc2)NC(=O)CSC[C@@H](C(=O)NCC(N)=O)NC(=O)CNC(=O)[C@H](CC(C)C)NC(=O)[C@H](CCC(=O)O)NC(=O)CNC(=O)[C@H](Cc2ccc(O)cc2)NC1=O ({CH2CO}-YHHYYRALYGELGCG-NH2; thioether N-14) | 254 |
| CC(C)C[C@@H]1NC(=O)[C@H](CC(=O)O)NC(=O)CNC(=O)[C@H](Cc2ccc(O)cc2)NC(=O)[C@H](CC(C)C)NC(=O)[C@H](CO)NC(=O)[C@H](CCCNC(=N)N)NC(=O)[C@H](Cc2c[nH]cn2)NC(=O)[C@H](Cc2ccc(O)cc2)NC(=O)[C@H](Cc2c[nH]cn2)NC(=O)[C@H](Cc2c[nH]cn2)NC(=O)[C@H](Cc2ccc(O)cc2)NC(=O)CSC[C@@H](C(=O)NCC(N)=O)NC(=O)CNC1=O ({CH2CO}-YHHYHRSLYGDLGCG-NH2; thioether N-14) | > 30000 |
| CC[C@H](C)[C@@H]1NC(=O)[C@H](CCCNC(=N)N)NC(=O)[C@H](Cc2ccc(O)cc2)NC(=O)[C@H](Cc2ccc(O)cc2)NC(=O)[C@H](CCCCN)NC(=O)[C@H](Cc2c[nH]cn2)NC(=O)[C@H](Cc2ccc(O)cc2)NC(=O)CSC[C@@H](C(=O)NCC(N)=O)NC(=O)CNC(=O)[C@H](CC(C)C)NC(=O)[C@H](CCC(=O)O)NC(=O)CNC(=O)[C@H](Cc2ccc(O)cc2)NC(=O)[C@H](CC(C)C)NC1=O ({CH2CO}-YHKYYRILYGELGCG-NH2; thioether N-14) | 89 |
| CC[C@H](C)[C@@H]1NC(=O)[C@H](CCCNC(=N)N)NC(=O)[C@H](Cc2ccc(O)cc2)NC(=O)[C@H](Cc2ccc(O)cc2)NC(=O)[C@H](CC(C)C)NC(=O)[C@H](Cc2c[nH]cn2)NC(=O)[C@H](Cc2ccc(O)cc2)NC(=O)CSC[C@@H](C(=O)NCC(N)=O)NC(=O)CNC(=O)[C@H](CC(C)C)NC(=O)[C@H](CCC(=O)O)NC(=O)CNC(=O)[C@H](Cc2ccc(O)cc2)NC(=O)[C@H](CC(C)C)NC1=O ({CH2CO}-YHLYYRILYGELGCG-NH2; thioether N-14) | 68 |
